Assay results as given in patent US6861528B2, “Carboxylated heterocyclic compounds and methods of synthesis” (R.T. Alamo Ventures I, LLC, priority 2002, dated 2005).

Tested on: Protein Serine/Threonine Kinase PKC, non-selective
Assay: Protein Serine/Threonine Kinase PKC, non-selective enzyme assay ([32P]histone quantitated)
Assay type: biochemical
Details: 1% DMSO vehicle, rat brain enzyme, histone substrate
Text: In this example, carboxyflosequinan was subjected to biochemical enzyme assays and radioligand binding assays to determine its percent inhibition of a variety of enzyme activities. Tamaoki and Nakano “Potent and specific inhibitors of protein kinase C of microbial origin” Biotechnology 8:732 (1990); Wilkinson et al. “Isoenzyme specificity of bisindolymaleimides, selective inhibitors of protein kinase C” Biochem. J. 294:335 (1993); Tamaki et al. “Staurosporine, a potent inhibitor of phospholipid/Ca++ dependent protein kinase” Biochem. Biophys. Res. Comm, 135:397 (1986). A brief summary of the conditions for each assay is provided below:
Protein Serine/Threonine Kinase PKC, non-selective: The enzyme was obtained from rat brain and the substrate was 370 μg/ml histone. The reaction was pre-incubated 5 min at 25° C., followed by a 15 min incubation at 25° C. in a buffer of 20 mM Tris-HCl, […] and 0.1 mM CaCl2.2HO, pH 7.4. [^32P]histone was quantitated.
FIG. 3 projects data for carboxyflosequinan in the assays described above. In these protein kinase assays, carboxyflosequinan was used in varying concentrations (in 1% DMSO as the vehicle). For the protein serine/threonine kinase (PKC, non-selective), carboxyflosequinan was tested at a concentrations of 100 μM, 300 μM, and 1000 μM. […] (See, FIG. 3).

- inhibition of protein serine/threonine kinase (PKC, non-selective) (100 μM carboxyflosequinan): greater than 50%
- inhibition of protein serine/threonine kinase (PKC, non-selective) (300 μM carboxyflosequinan): greater than 50%
- inhibition of protein serine/threonine kinase (PKC, non-selective) (1000 μM carboxyflosequinan): greater than 50%
Structure (SMILES): Cn1cc([S+]([O-])CC(=O)O)c(=O)c2ccc(F)cc21 (stereo not drawn) [carboxyflosequinan, 3-carboxymethylsulfinyl-7-fluoro-1-methyl-4-quinolone]
